# Results published in patent publication US11142526B2, “Spirocycle compounds and methods of making and using same” (H. Lundbeck A/S, priority 2017, dated 2021).
# Read-outs that look alike come from different tables or passages of the source.
# Assays:
# [1] = target: T1, MAGL (Mus musculus (Mouse), UniProt O35678); test: In vitro competitive activity-based protein profiling, mouse brain proteome; assay type: biochemical; details: for inhibition at 1 µM: mouse; for IC50: mouse brain
# [2] = target: MAGL (Homo sapiens (Human), UniProt Q99685); test: In vitro competitive activity-based protein profiling (gel-based, FP-Rh or HT-01 probe); assay type: biochemical
# Sequence of MAGL (Homo sapiens (Human), UniProt Q99685) (Q99685 whole entry): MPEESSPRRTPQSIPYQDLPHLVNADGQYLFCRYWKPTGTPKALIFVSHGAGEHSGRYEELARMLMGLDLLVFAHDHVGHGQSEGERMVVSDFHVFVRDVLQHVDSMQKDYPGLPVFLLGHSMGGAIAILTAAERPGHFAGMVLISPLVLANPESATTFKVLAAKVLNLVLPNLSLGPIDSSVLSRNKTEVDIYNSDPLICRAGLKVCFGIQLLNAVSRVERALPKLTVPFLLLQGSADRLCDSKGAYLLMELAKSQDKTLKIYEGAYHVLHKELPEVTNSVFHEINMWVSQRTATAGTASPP
# Protocol: In Vitro Competitive Activity-Based Protein Profiling.
# Proteomes (human prefrontal cortex or cell membrane fractions) (50 μL, 1.0 mg/mL total protein concentration) were preincubated with varying concentrations of inhibitors at 37° C. After 30 min, FP-Rh or HT-01 (1.0 μL, 50 μM in DMSO) was added and the mixture was incubated for another 30 min at room temperature. Reactions were quenched with SDS loading buffer (15 μL—4×) and run on SDS-PAGE.
# [3] = target: T1, MAGL; test: Mouse brain proteomes from inhibitor treated mice (oral gavage, brain MAGL activity 4 h after administration); assay type: in vivo; details: 5 mg/kg oral gavage
# Protocol: Preparation of Mouse Brain Proteomes from Inhibitor Treated Mice.
# Inhibitors were administered to wild-type C57B1/6J by oral gavage in a vehicle of polyethylene glycol.
# [4] = human PC3, read-out: MAGL % Inhibition at 1 μM (human PC3)
# [5] = human PFC (prefrontal cortex), read-out: MAGL % Inhibition at 1 μM (human PFC)
# [6] = human PC3, read-out: MAGL Human PC3 (IC50)
# [7] = human PFC (prefrontal cortex), read-out: MAGL Human PFC (IC50)
# T1 sequence (O35678 whole entry): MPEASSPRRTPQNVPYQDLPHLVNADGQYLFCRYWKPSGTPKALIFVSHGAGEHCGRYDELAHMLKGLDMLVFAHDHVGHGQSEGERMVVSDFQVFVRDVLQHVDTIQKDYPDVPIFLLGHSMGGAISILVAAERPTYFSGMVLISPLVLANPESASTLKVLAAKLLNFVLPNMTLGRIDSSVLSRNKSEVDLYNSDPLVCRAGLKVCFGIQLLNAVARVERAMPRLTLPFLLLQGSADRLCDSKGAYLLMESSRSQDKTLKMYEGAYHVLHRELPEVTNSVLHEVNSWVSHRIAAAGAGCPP
SMILES,inhibition at 1 µM [1] [%],IC50 [1] [nM],"inhibition at 1 µM [2, 4] [%]","inhibition at 1 µM [2, 5] [%]","IC50 [2, 6] [nM]","IC50 [2, 7] [nM]",MAGL % Inhibition at 5 mg/kg (Mouse) [3]
"O=C(OC(C(F)(F)F)C(F)(F)F)N1CCC2(CCCN2C(=O)c2cn3c(n2)CN(C2CC2)CC3)CC1 [Example 2, 1,1,1,3,3,3-Hexafluoropropan-2-yl 1-(7-cyclopropyl-5,6,7,8-tetrahydroimidazo[1,2-a]pyrazine-2-carbonyl)-1,8-diazaspiro[4.5]decane-8-carboxylate]",> 75,< 100,> 75,> 75,< 100,< 100,### (% inhibition is greater than or equal to 75%)
"O=C(OC(C(F)(F)F)C(F)(F)F)N1CCC2(CCCN2C(=O)c2cncnc2N2CCCC2)CC1 [Example 5, 1,1,1,3,3,3-Hexafluoropropan-2-yl 1-(4-(pyrrolidin-1-yl)pyrimidine-5-carbonyl)-1,8-diazaspiro[4.5]decane-8-carboxylate]",> 75,–,–,> 75,< 100,< 100,### (% inhibition is greater than or equal to 75%)
"CN(C(=O)c1cn2c(n1)CN(C1CC1)CC2)C1(C)CCN(C(=O)OC(C(F)(F)F)C(F)(F)F)CC1 [Example 18, 1,1,1,3,3,3-Hexafluoropropan-2-yl 4-(7-cyclopropyl-N-methyl-5,6,7,8-tetrahydroimidazo[1,2-a]pyrazine-2-carboxamido)-4-methylpiperidine-1-carboxylate]",> 75,< 100,> 75,> 75,< 100,–,### (% inhibition is greater than or equal to 75%)
"CC1(NC(=O)c2cn3c(n2)CN(S(C)(=O)=O)CC3)CCN(C(=O)OC(C(F)(F)F)C(F)(F)F)CC1 [Example 27, 1,1,1,3,3,3-hexafluoropropan-2-yl 4-methyl-4-(7-(methylsulfonyl)-5,6,7,8-tetrahydroimidazo[1,2-a]pyrazine-2-carboxamido)piperidine-1-carboxylate]",–,–,> 75,–,< 100,–,# (% inhibition less or equal to 25%)
"CC(C)N1CCn2cc(C(=O)NC3(C)CCN(C(=O)OC(C(F)(F)F)C(F)(F)F)CC3)nc2C1 [Example 182, 1,1,1,3,3,3-Hexafluoropropan-2-yl 4-(7-isopropyl-5,6,7,8-tetrahydroimidazo[1,2-a]pyrazine-2-carboxamido)-4-methylpiperidine-1-carboxylate]",–,–,> 75,> 75,< 100,–,### (% inhibition is greater than or equal to 75%)

# Second part, led by results:
inhibition at 1 µM [1] [%],IC50 [1] [nM],"inhibition at 1 µM [2, 4] [%]","inhibition at 1 µM [2, 5] [%]","IC50 [2, 6] [nM]","IC50 [2, 7] [nM]",SMILES,MAGL % Inhibition at 5 mg/kg (Mouse) [3]
> 75,< 100,–,–,–,–,"CC(C)n1cc(CN2CCCC23CCN(C(=O)OC(C(F)(F)F)C(F)(F)F)CC3)c(-c2ccccc2Cl)n1 [Example 222, 1,1,1,3,3,3-Hexafluoropropan-2-yl 1-((3-(2-chlorophenyl)-1-isopropyl-1H-pyrazol-4-yl)methyl)-1,8-diazaspiro[4.5]decane-8-carboxylate]",### (% inhibition is greater than or equal to 75%)
> 75,< 100,–,–,–,–,"O=C(OC(C(F)(F)F)C(F)(F)F)N1CCC2(CCCN2Cc2cc3ccccc3s2)CC1 [Example 223, 1,1,1,3,3,3-Hexafluoropropan-2-yl 1-(benzo[b]thiophen-2-ylmethyl)-1,8-diazaspiro[4.5] decane-8-carboxylate]",### (% inhibition is greater than or equal to 75%)
> 75,< 100,–,–,–,–,"O=C(OC(C(F)(F)F)C(F)(F)F)N1CCC2(CCCN2Cc2csc(-c3ccccc3)n2)CC1 [Example 227, 1,1,1,3,3,3-Hexafluoropropan-2-yl 1-((2-phenylthiazol-4-yl)methyl)-1,8-diazaspiro[4.5]decane-8-carboxylate]",### (% inhibition is greater than or equal to 75%)
